Laboratory results from ChEMBL document CHEMBL1124111, “Studies directed toward ascertaining the active conformation of 1,4-dihydropyridine calcium entry blockers” (J Med Chem, 1988).

Legend:
[1] = target: Voltage-dependent L-type calcium channel (Cavia porcellus); test: Dissociation constant for inhibition of [3H]nitrendipine binding to guinea pig myocardial membranes; details: read-out: Kd1
[2] = tested on: Voltage-dependent L-type calcium channel (Cavia porcellus); test: Bmax2 from dihydropyridine receptor binding assay in guinea pig myocardial membranes
[3] = tested on: Voltage-dependent L-type calcium channel (Cavia porcellus); test: Bmax1 from dihydropyridine receptor binding assay in guinea pig myocardial membranes
[4] = target: Voltage-dependent L-type calcium channel (Cavia porcellus); test: Dissociation constant for inhibition of [3H]nitrendipine binding to guinea pig myocardial membranes; details: read-out: Kd2
Oryctolagus cuniculus = species: Oryctolagus cuniculus; test: Compound was tested for ability to relax potassium-contracted rabbit aorta smooth muscle; assay type: functional
[5] = target: Voltage-dependent L-type calcium channel (Cavia porcellus); test: Dissociation constant for inhibition of [3H]nitrendipine binding to guinea pig myocardial membranes; details: read-out: Kd2; remark: listed apart in the source

Compound	Kd [1] [nM]	Bmax2 [2] [%]	Bmax1 [3] [%]	Kd [4] [nM]	IC50 (Oryctolagus cuniculus) [nM]	Kd [5] [nM]
COC(=O)C1=C(C)N=C(C)/C(=C(\O)OC)C1c1ccccc1Cl (stereo unspecified)	0.006	79	21	1	3	
COC(=O)C1=C(C)N=C(C)/C(=C(\O)OC)C1c1cccc([N+](=O)[O-])c1Cl (stereo unspecified)	0.23	21	79	85	1	
COC(=O)C1=C(C)NC(C)=C(C(=O)OC)C1c1ccccc1[N+](=O)[O-] [NIFEDIPINE]					0.5	
COC(=O)C1=C(C)N=C(C)/C(=C(\O)OC)C1c1ccc([N+](=O)[O-])cc1Cl (stereo unspecified)	1.25	92	8		185	107
COC(=O)C1=C(C)N=C(C)/C(=C(\O)OC)C1c1cccc(C#N)c1 (stereo unspecified)	2.15	17	83	152	11.1	
COC(=O)C1=C(C)N=C(C)/C(=C(\O)OC)C1c1cc([N+](=O)[O-])ccc1Cl (stereo unspecified)	0.95	51	49	74.4	13.6	
